Earlier results on two compounds are cited in patent publication US10208063B2, “ACC inhibitors and uses thereof” (Gilead Apollo, LLC, priority 2013, dated 2019).

SMILES strings stand for the structures.

The conditions of data set [1]: sucrose-fed rats, three weeks.
For another data set, the system named is ACC1. Conditions: ACC1 isolated from rat, mouse, monkey and human.
The next data set deals with ACC2. The conditions noted are these: ACC2 isolated from rat, mouse, monkey and human.
The target in data set [2] is T1, propionyl-CoA carboxylase (Homo sapiens, UniProt P05165+P05166).
T1 sequence (P05165 53-728): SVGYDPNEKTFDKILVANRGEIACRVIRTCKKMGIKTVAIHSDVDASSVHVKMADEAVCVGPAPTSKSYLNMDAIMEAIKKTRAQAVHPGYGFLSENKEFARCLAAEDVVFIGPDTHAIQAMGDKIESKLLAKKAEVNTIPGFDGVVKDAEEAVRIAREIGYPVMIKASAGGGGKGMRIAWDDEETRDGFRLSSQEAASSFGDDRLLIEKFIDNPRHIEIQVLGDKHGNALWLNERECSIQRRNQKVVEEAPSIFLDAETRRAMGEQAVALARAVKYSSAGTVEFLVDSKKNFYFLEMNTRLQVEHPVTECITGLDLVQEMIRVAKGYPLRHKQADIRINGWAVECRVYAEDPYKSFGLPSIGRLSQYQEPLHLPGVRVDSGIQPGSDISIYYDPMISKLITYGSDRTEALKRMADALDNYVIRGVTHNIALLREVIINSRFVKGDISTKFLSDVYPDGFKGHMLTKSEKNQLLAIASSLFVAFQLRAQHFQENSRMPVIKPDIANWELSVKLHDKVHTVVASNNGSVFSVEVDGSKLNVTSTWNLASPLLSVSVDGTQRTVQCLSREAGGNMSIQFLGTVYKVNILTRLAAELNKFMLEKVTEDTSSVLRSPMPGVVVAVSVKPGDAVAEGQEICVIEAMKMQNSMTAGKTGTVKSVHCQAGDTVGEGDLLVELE
T1 sequence (P05166 29-539): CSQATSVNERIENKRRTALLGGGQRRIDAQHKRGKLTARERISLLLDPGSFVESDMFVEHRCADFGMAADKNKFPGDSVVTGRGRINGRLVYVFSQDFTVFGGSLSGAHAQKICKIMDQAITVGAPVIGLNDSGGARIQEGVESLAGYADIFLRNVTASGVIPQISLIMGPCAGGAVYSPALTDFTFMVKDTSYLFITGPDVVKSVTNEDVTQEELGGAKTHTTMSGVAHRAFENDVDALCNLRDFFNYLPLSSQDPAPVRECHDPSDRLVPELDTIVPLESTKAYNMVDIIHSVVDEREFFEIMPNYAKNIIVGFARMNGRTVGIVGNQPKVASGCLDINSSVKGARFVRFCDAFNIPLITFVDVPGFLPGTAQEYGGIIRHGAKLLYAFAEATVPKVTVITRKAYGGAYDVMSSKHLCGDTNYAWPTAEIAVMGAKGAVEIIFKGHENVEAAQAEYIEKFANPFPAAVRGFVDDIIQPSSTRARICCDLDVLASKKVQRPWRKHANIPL

Another data set addresses T2, pyruvate carboxylase (Homo sapiens, UniProt P11498).
T2 sequence (P11498 21-1178): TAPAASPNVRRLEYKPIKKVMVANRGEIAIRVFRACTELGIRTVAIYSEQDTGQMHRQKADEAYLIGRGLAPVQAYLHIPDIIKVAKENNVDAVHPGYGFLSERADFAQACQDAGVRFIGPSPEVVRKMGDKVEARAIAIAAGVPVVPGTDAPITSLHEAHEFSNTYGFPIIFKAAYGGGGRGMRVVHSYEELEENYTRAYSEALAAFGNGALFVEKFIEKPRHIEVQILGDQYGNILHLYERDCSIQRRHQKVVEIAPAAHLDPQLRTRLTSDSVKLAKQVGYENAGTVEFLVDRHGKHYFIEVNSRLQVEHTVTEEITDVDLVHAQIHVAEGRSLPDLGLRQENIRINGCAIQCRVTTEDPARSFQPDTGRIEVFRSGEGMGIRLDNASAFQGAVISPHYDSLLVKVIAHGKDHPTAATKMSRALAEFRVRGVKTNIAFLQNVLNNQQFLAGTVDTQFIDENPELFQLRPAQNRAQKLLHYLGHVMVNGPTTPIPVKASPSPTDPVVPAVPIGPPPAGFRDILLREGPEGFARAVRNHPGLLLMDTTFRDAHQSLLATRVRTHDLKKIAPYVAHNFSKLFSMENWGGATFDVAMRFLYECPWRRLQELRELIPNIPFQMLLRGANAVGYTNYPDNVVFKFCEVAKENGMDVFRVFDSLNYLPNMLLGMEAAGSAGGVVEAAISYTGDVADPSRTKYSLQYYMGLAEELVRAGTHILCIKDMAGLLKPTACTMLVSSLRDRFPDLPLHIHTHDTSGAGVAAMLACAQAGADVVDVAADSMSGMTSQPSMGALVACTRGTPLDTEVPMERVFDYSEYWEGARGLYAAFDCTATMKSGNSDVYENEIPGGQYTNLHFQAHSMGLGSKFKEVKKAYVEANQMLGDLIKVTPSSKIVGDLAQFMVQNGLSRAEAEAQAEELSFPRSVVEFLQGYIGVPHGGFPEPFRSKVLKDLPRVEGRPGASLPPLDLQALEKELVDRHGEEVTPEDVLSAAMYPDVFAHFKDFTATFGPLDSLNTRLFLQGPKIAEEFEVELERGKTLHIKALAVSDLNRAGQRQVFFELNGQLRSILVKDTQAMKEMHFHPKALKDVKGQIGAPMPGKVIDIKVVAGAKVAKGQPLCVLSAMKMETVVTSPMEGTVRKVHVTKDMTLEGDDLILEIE

Data set [3] concerns insulin-resistant rat muscle tissue. Conditions: within 30 min of compound administration.
The conditions of data set [4]: rats, acute (46 min) treatment.

`O=C(c1c2ccccc2cc2ccccc12)N1CCC(N2CCC[C@@H](C(=O)N3CCOCC3)C2)CC1` [CP-640186]: in [1], the insulin sensitivity entry is on record as “improved”; the leptin levels result is “reduced”; the “liver, muscle and adipose triglycerides” value was “time- and dose-dependently reduced”. Moreover, the body weight entry in [1] (selective fat reduction without reducing lean body mass) is on record as “reduced”. Also, the “hyperinsulinemia produced by the high sucrose diet” value in data set [1] (without changing plasma glucose levels) is “reduced”. For the same compound, the IC50 in the data set on ACC1 was around 60 nM. Besides, the IC50 in the data set with ACC2 is around 60 nM. Also, in data set [2], the “inhibition of propionyl-CoA carboxylase” value is listed as “without inhibiting”. Further, the FA oxidation result in the data set on C2C12 cells is “stimulated”. In addition, the “inhibition of pyruvate carboxylase” value at pyruvate carboxylase is reported as “without inhibiting”. Under “experimental animals”, the “liver and adipose tissue FA synthesis” value was “reduced”; the “whole body FA oxidation” value is on record as “increased”. For the same compound, the malonyl-CoA concentration result (lipogenic and oxidative tissues, fed and fasted state) is given as “acutely reduced”. For the same compound, the insulin sensitivity entry in data set [3] was “stimulation”. Further, in the data set with Hep-G2 cells, the CPT-I activity result is listed as “increased”, the FA synthesis entry is on record as “reduced”, the apoA1 secretion entry is “without affecting” and the apoB secretion entry is recorded as “reduced”. For the same compound, in the data set with Hep-G2 cells, the cholesterol synthesis result is listed as “without affecting”; the “triglyceride synthesis and secretion” value is “reduced”. In addition, in data set [4], the FA clearance entry is “stimulated” and the glucose clearance result was “without decreasing”. Further, the FA oxidation result in the data set on rat muscle slices is listed as “stimulated”.

Regarding `CO[C@H]1CCCC[C@@H](c2ccccc2)OC(=O)[C@@H](C)[C@@]2(O)O[C@H]([C@@H](C)[C@H](O)[C@H]2OC)[C@@H](C)/C=C/[C@H]1OC` [soraphen A], in the data set on liposarcoma, the lipogenesis result is reported as “inhibited” and the tumor cell growth entry is “inhibited”.
